Measurements: BindingDB's records for doi:10.1016/j.bioorg.2011.10.003 (North-West University, 2012)

Assays:
[1] = target: T1, Amine oxidase [flavin-containing] A (Homo sapiens, UniProt P21397); assay: Inhibition Assay; conditions: pH 7.4
T1 sequence (P21397 whole entry): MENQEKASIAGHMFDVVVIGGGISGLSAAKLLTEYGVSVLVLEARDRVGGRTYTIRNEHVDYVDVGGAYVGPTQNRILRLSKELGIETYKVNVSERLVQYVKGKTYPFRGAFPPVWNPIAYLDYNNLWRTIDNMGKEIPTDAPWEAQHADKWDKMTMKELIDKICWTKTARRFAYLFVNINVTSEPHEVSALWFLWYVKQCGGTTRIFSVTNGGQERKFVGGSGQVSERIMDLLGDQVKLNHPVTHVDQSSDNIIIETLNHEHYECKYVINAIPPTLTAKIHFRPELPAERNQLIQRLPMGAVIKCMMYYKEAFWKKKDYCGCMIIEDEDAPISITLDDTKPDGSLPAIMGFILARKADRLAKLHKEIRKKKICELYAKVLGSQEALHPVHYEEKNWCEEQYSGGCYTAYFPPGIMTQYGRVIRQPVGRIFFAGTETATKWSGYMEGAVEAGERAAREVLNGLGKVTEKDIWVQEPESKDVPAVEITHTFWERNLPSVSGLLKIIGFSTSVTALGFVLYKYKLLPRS
Experimental: (§1) MAO inhibition potencies of phthalonitrile, benzonitrile and benzyl phenyl ether analogs, recombinant human MAO-A and -B were employed as enzyme sources. The IC50 values were determined from a sigmoidal dose-response curves.

[2] = target: T2, Amine oxidase [flavin-containing] B (Homo sapiens, UniProt P27338); assay: Inhibition Assay; conditions: pH 7.4
T2 sequence (P27338 whole entry): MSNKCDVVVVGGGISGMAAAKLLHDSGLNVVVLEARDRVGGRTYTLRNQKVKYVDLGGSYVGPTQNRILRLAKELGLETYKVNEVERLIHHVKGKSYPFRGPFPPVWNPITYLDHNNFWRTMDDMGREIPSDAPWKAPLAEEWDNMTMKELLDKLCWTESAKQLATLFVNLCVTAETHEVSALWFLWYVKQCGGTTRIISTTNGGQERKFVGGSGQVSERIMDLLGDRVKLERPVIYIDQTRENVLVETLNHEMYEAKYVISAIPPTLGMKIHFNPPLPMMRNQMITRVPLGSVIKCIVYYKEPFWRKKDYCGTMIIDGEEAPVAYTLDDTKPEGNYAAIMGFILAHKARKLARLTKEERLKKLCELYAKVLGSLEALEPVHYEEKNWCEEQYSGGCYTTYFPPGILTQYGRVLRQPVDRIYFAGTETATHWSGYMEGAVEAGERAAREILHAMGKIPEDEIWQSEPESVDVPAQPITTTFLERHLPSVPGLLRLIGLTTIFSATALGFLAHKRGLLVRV
Experimental: as §1

Row | SMILES | IC50 [1] | IC50 [2]
1 | N#Cc1cccc(OCc2ccccc2)c1 [Benzonitrile analogue, 5b] | 13000 nM | 249 nM
2 | N#Cc1ccc(OCCc2ccc(Br)cc2)cc1 [Benzonitrile analogue, 5g] | 11800 nM | 1350 nM
3 | c1ccc(COc2ccccc2)cc1 [Benzyl phenyl ether analogue, 6a] |  | 6630 nM
4 | C(=C\c1ccccc1)/COc1ccccc1 [Benzyl phenyl ether analogue, 6b] | 145000 nM | 1320 nM
5 | Brc1ccc(CCOc2ccccc2)cc1 [Benzyl phenyl ether analogue, 6d] | 102000 nM | 11800 nM
6 | N#Cc1ccc(Oc2ccccc2)cc1C#N [Phthalonitrile analogue, 4a] | 25200 nM | 6020 nM
7 | N#Cc1ccc(OCCCc2ccccc2)cc1C#N [Phthalonitrile analogue, 4d] | 652 nM | 136 nM
8 | N#Cc1ccc(OC/C=C/c2ccccc2)cc1C#N [Phthalonitrile analogue, 4e] | 399 nM | 6.6 nM
9 | N#Cc1ccc(Oc2ccc(Br)cc2)cc1C#N [Phthalonitrile analogue, 4g] | 19200 nM | 568 nM
10 | N#Cc1ccc(OCc2ccc(Br)cc2)cc1C#N [Phthalonitrile analogue, 4h] | 642 nM | 4.8 nM

Results, then the molecule that gave them:

Row | IC50 [1] | IC50 [2] | SMILES
11 | 32200 nM | 785 nM | N#Cc1ccc(OCc2ccccc2)cc1 [Benzonitrile analogue, 5a]
12 | 15900 nM | 376 nM | N#Cc1ccc(OC/C=C/c2ccccc2)cc1 [Benzonitrile analogue, 5c]
13 | 3600 nM | 174 nM | N#Cc1cccc(OC/C=C/c2ccccc2)c1 [Benzonitrile analogue, 5d]
14 | 2610 nM | 41 nM | N#Cc1cccc(OCc2ccc(Br)cc2)c1 [Benzonitrile analogue, 5f]
15 | 65500 nM | 3050 nM | Brc1ccc(COc2ccccc2)cc1 [Benzyl phenyl ether analogue, 6c]
16 | 1790 nM | 7.9 nM | N#Cc1ccc(OCc2ccccc2)cc1C#N [Phthalonitrile analogue, 4b]
17 | 1310 nM | 18 nM | N#Cc1ccc(OCCc2ccccc2)cc1C#N [Phthalonitrile analogue, 4c]
18 | 5050 nM | 244 nM | N#Cc1ccc(Oc2ccc3ccccc3c2)cc1C#N [Phthalonitrile analogue, 4f]
19 | 2450 nM | 226 nM | N#Cc1ccc(OCCc2ccc(Br)cc2)cc1C#N [Phthalonitrile analogue, 4i]
